PubChem BioAssay (NCI)
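Interpolation was linear, between the two tested concentrations surrounding the appropriate level; five concentrations were tested over 48 hours in 96-well plates. The concentration for 50% growth inhibition is given as GI50. Definition used: TGI = concentration required for complete inhibition of growth.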

Legend:
Assay in all cases: NCI anticancer screen, dose series, 48 h
NCI-H522 lung = tested on: NCI-H522 lung
HCC-2998 colon = tested on: HCC-2998 colon
UACC-62 melanoma = tested on: UACC-62 melanoma
BT-549 breast = tested on: BT-549 breast
SR leukemia = tested on: SR leukemia
RXF 393 renal = tested on: RXF 393 renal
HL-60(TB) leukemia = tested on: HL-60(TB) leukemia
RPMI-8226 leukemia = tested on: RPMI-8226 leukemia
SF-268 CNS = tested on: SF-268 CNS
PC-3 prostate = tested on: PC-3 prostate
SK-OV-3 ovarian = tested on: SK-OV-3 ovarian
NCI-H460 lung = tested on: NCI-H460 lung
M14 melanoma = tested on: M14 melanoma
UACC-257 melanoma = tested on: UACC-257 melanoma
SW-620 colon = tested on: SW-620 colon
MDA-MB-435 = tested on: MDA-MB-435
NCI-H226 lung = tested on: NCI-H226 lung
SF-539 CNS = tested on: SF-539 CNS
HT29 colon = tested on: HT29 colon
ACHN renal = tested on: ACHN renal
HOP-92 NSCLC = tested on: HOP-92 NSCLC
COLO 205 colon = tested on: COLO 205 colon
MOLT-4 leukemia = tested on: MOLT-4 leukemia
CCRF-CEM leukemia = tested on: CCRF-CEM leukemia
SK-MEL-5 melanoma = tested on: SK-MEL-5 melanoma
HS 578T breast = tested on: HS 578T breast
TK-10 renal = tested on: TK-10 renal
MALME-3M melanoma = tested on: MALME-3M melanoma
SK-MEL-2 melanoma = tested on: SK-MEL-2 melanoma
OVCAR-4 ovarian = tested on: OVCAR-4 ovarian
K-562 leukemia = tested on: K-562 leukemia
A498 renal = tested on: A498 renal
HOP-62 NSCLC = tested on: HOP-62 NSCLC
NCI-H23 lung = tested on: NCI-H23 lung
A549 NSCLC = tested on: A549 NSCLC
EKVX NSCLC = tested on: EKVX NSCLC
MCF7 breast = tested on: MCF7 breast
OVCAR-5 ovarian = tested on: OVCAR-5 ovarian
SNB-19 CNS = tested on: SNB-19 CNS
MDA-MB-231 breast = tested on: MDA-MB-231 breast
786-0 renal = tested on: 786-0 renal
SN12C renal = tested on: SN12C renal
NCI/ADR-RES ovarian = tested on: NCI/ADR-RES ovarian
HCT-116 colon = tested on: HCT-116 colon
SK-MEL-28 melanoma = tested on: SK-MEL-28 melanoma
IGROV1 ovarian = tested on: IGROV1 ovarian
KM12 colon = tested on: KM12 colon
CAKI-1 renal = tested on: CAKI-1 renal
LOX IMVI melanoma = tested on: LOX IMVI melanoma
OVCAR-3 ovarian = tested on: OVCAR-3 ovarian
HCT-15 colon = tested on: HCT-15 colon
SF-295 CNS = tested on: SF-295 CNS
SNB-75 CNS = tested on: SNB-75 CNS
DU-145 prostate = tested on: DU-145 prostate
UO-31 renal = tested on: UO-31 renal
U251 CNS = tested on: U251 CNS
T-47D breast = tested on: T-47D breast

SMILES: CC(C)OC(=O)c1cc(NS(=O)(=O)c2ccc3ccccc3c2)cc(C(=O)OC(C)C)c1
- GI50 (NCI-H522 lung): 18.3 µM
- TGI (NCI-H522 lung): 45.9 µM
- GI50 (HCC-2998 colon): 17.3 µM
- TGI (HCC-2998 colon): 47.2 µM
- GI50 (UACC-62 melanoma): 17 µM
- TGI (UACC-62 melanoma): 48.6 µM
- GI50 (BT-549 breast): 17.2 µM
- TGI (BT-549 breast): 43.2 µM
- GI50 (SR leukemia): 24.5 µM
- TGI (SR leukemia): 76.2 µM
- GI50 (RXF 393 renal): 20.9 µM
- TGI (RXF 393 renal): > 100 µM
- GI50 (HL-60(TB) leukemia): 24.2 µM
- TGI (HL-60(TB) leukemia): 65.8 µM
- GI50 (RPMI-8226 leukemia): 15.6 µM
- TGI (RPMI-8226 leukemia): 45.3 µM
- GI50 (SF-268 CNS): 15.8 µM
- TGI (SF-268 CNS): 57.3 µM
- GI50 (PC-3 prostate): 23.8 µM
- TGI (PC-3 prostate): 91.8 µM
- GI50 (SK-OV-3 ovarian): 32.3 µM
- TGI (SK-OV-3 ovarian): > 100 µM
- GI50 (NCI-H460 lung): 13.4 µM
- TGI (NCI-H460 lung): 38.8 µM
- GI50 (M14 melanoma): 17.6 µM
- TGI (M14 melanoma): 46.8 µM
- GI50 (UACC-257 melanoma): 30.5 µM
- TGI (UACC-257 melanoma): > 100 µM
- GI50 (SW-620 colon): 30.3 µM
- TGI (SW-620 colon): > 100 µM
- GI50 (MDA-MB-435): 23.1 µM
- TGI (MDA-MB-435): 73.2 µM
- GI50 (NCI-H226 lung): 26.8 µM
- TGI (NCI-H226 lung): > 100 µM
- GI50 (SF-539 CNS): 24.6 µM
- TGI (SF-539 CNS): 61.3 µM
- GI50 (HT29 colon): 34.1 µM
- TGI (HT29 colon): > 100 µM
- GI50 (ACHN renal): 33.1 µM
- TGI (ACHN renal): > 100 µM
- GI50 (HOP-92 NSCLC): 24.9 µM
- TGI (HOP-92 NSCLC): 64.9 µM
- GI50 (COLO 205 colon): 16 µM
- TGI (COLO 205 colon): 34.3 µM
- GI50 (MOLT-4 leukemia): 22 µM
- TGI (MOLT-4 leukemia): 63.4 µM
- GI50 (CCRF-CEM leukemia): 22.5 µM
- TGI (CCRF-CEM leukemia): 88.9 µM
- GI50 (SK-MEL-5 melanoma): 16 µM
- TGI (SK-MEL-5 melanoma): 31.8 µM
- GI50 (HS 578T breast): 20.7 µM
- TGI (HS 578T breast): 49.8 µM
- GI50 (TK-10 renal): 45.2 µM
- TGI (TK-10 renal): > 100 µM
- GI50 (MALME-3M melanoma): 32.7 µM
- TGI (MALME-3M melanoma): > 100 µM
- GI50 (SK-MEL-2 melanoma): 26.2 µM
- TGI (SK-MEL-2 melanoma): 73.6 µM
- GI50 (OVCAR-4 ovarian): 22 µM
- TGI (OVCAR-4 ovarian): 82.3 µM
- GI50 (K-562 leukemia): 29.6 µM
- TGI (K-562 leukemia): > 100 µM
- GI50 (A498 renal): 17.2 µM
- TGI (A498 renal): 54.9 µM
- GI50 (HOP-62 NSCLC): 33.1 µM
- TGI (HOP-62 NSCLC): > 100 µM
- GI50 (NCI-H23 lung): 21.9 µM
- TGI (NCI-H23 lung): 73.9 µM
- GI50 (A549 NSCLC): 27.1 µM
- TGI (A549 NSCLC): 93.5 µM
- GI50 (EKVX NSCLC): 25 µM
- TGI (EKVX NSCLC): 89.2 µM
- GI50 (MCF7 breast): 12.3 µM
- TGI (MCF7 breast): 45.3 µM
- GI50 (OVCAR-5 ovarian): 18.3 µM
- TGI (OVCAR-5 ovarian): 48.8 µM
- GI50 (SNB-19 CNS): 33.5 µM
- TGI (SNB-19 CNS): > 100 µM
- GI50 (MDA-MB-231 breast): 21.4 µM
- TGI (MDA-MB-231 breast): 76.5 µM
- GI50 (786-0 renal): 30.9 µM
- TGI (786-0 renal): > 100 µM
- GI50 (SN12C renal): 29.9 µM
- TGI (SN12C renal): > 100 µM
- GI50 (NCI/ADR-RES ovarian): 16.3 µM
- TGI (NCI/ADR-RES ovarian): 56.6 µM
- GI50 (HCT-116 colon): 24.2 µM
- TGI (HCT-116 colon): > 100 µM
- GI50 (SK-MEL-28 melanoma): 24.6 µM
- TGI (SK-MEL-28 melanoma): 73.2 µM
- GI50 (IGROV1 ovarian): 35.2 µM
- TGI (IGROV1 ovarian): > 100 µM
- GI50 (KM12 colon): 32.3 µM
- TGI (KM12 colon): > 100 µM
- GI50 (CAKI-1 renal): 36.4 µM
- TGI (CAKI-1 renal): > 100 µM
- GI50 (LOX IMVI melanoma): 28.5 µM
- TGI (LOX IMVI melanoma): > 100 µM
- GI50 (OVCAR-3 ovarian): 24 µM
- TGI (OVCAR-3 ovarian): 94.7 µM
- GI50 (HCT-15 colon): 28.4 µM
- TGI (HCT-15 colon): > 100 µM
- GI50 (SF-295 CNS): 22.2 µM
- TGI (SF-295 CNS): 79.7 µM
- GI50 (SNB-75 CNS): 23.9 µM
- TGI (SNB-75 CNS): 66.2 µM
- GI50 (DU-145 prostate): 28.8 µM
- TGI (DU-145 prostate): > 100 µM
- GI50 (UO-31 renal): 26.4 µM
- TGI (UO-31 renal): > 100 µM
- GI50 (U251 CNS): 31.7 µM
- TGI (U251 CNS): > 100 µM
- GI50 (T-47D breast): 17.6 µM
- TGI (T-47D breast): 58.5 µM
